Test results: patent EP0863145A2, “Sunscreen compositions” (F. HOFFMANN-LA ROCHE AG, priority 1997, dated 1998)

Experiment: Solubility in cosmetic solvents (Cétiol LC, Crodamol DA)
Format: physicochemical
Details: solvent Cétinol LC; chromatographed product
Text: Bezüglich der Lipophilität sind die erfindungsgemässen Verbindungen I den eingangs genannten substituierten Triazinen überlegen, indem alle Verbindungen I das im vorliegenden Fall nötige Kriterium, nämlich eine hohe Löslichkeit in kosmetischen Lösungsmitteln wie z.B. Deltyl extra (Isopropylmyristat), Arlanol E (PPG 15-Stearylether), Cétiol LC (Cocoylcapylat/-caprat) oder Crodamol DA (Diisopropyladipat) erfüllen, wie die nachfolgend beispielhaft aufgeführten Verbindungen der Formel I und deren Löslichkeiten in Cetiol LC und/oder in Crodamol DA zeigen (Tabelle II).

C[Si](C)(C)O[Si](C)(C)CCCCOc1ccc(-c2nc(-c3ccc(OCCCC[Si](C)(C)O[Si](C)(C)C)cc3O)nc(-c3ccc(OCCCC[Si](C)(C)O[Si](C)(C)C)cc3O)n2)c(O)c1 [Beispiel 10, 5,5',5''-Tris-[4-(1,1,1,3,3-pentamethyl-disiloxan-oxy)-butyl-1-oxy]-2,2',2''-(1.3.5)-triazin-2,4,6-triyl-tris-phenol]
Löslichkeit in Cétinol LC: 8%

C[Si](C)(C)O[Si](C)(C)CCCCCOc1ccc(-c2nc(-c3ccc(OCCCCC[Si](C)(C)O[Si](C)(C)C)cc3O)nc(-c3ccc(OCCCCC[Si](C)(C)O[Si](C)(C)C)cc3O)n2)c(O)c1 [Beispiel 9-1]
Löslichkeit in Cétinol LC: > 35%
